Measurements published in patent US10597388B2, “Pyridazinone herbicides” (FMC CORPORATION, priority 2014, dated 2020).

Legend:
Test in all cases: Test E greenhouse herbicide test, pre- and postemergence
Format in all cases: in vivo
Conditions in all cases: Postemergence
[1] = test system: soybean (Glycine max)
Outline: (§1)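 Compounds in a non-phytotoxic solvent mixture with surfactant were applied preemergence to seeds in silt loam soil and postemergence to 2-18 cm plants (1- to 4-leaf stage) in peat-based medium. After 14 to 21 d in a greenhouse, injury was rated visually against untreated controls on a 0 (no effect) to 100 (complete control) scale.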

[2] = test system: panicum, fall (fall panicum, Panicum dichotomiflorum)
Outline: as §1

[3] = test system: dayflower (Virginia (VA) dayflower, Commelina virginica)
Outline: as §1

[4] = test system: beggarticks (hairy beggarticks, Bidens pilosa)
Outline: as §1

[5] = test system: horseweed (Conyza canadensis)
Outline: as §1

[6] = test system: barnyardgrass (Echinochloa crus-galli)
Outline: as §1

[7] = test system: sandbur (southem sandbur, Cenchrus echinatus)
Outline: as §1

[8] = test system: corn (Zea mays)
Outline: as §1

[9] = test system: pigweed, palmer (palmer pigweed, Amaranthus palmeri)
Outline: as §1

[10] = test system: ragweed (common ragweed, Ambrosia elatior)
Outline: as §1

[11] = 125 g ai/ha, scale 0 to 100 (0 no effect, 100 complete control)
[12] = 16 g ai/ha, visual, scale 0 no effect to 100 complete control
[13] = 31 g ai/ha, visual, scale 0 no effect to 100 complete control
[14] = 62 g ai/ha, scale 0 to 100 (0 no effect, 100 complete control)
[15] = 250 g ai/ha, scale 0 to 100 (0 no effect, 100 complete control)

| SMILES | Plant response rating, Soybean [1, 11] | Plant response rating, Soybean [1, 13] | Plant response rating, Panicum, Fall [2, 14] | Plant response rating, Panicum, Fall [2, 11] | Plant response rating, Panicum, Fall [2, 13] | Plant response rating, Dayflower, VA [3, 14] | Plant response rating, Dayflower, VA [3, 11] | Plant response rating, Dayflower, VA [3, 13] | Plant response rating, Beggarticks [4, 14] | Plant response rating, Beggarticks [4, 11] | Plant response rating, Beggarticks [4, 13] | Plant response rating, Horseweed [5, 14] | Plant response rating, Horseweed [5, 11] | Plant response rating, Horseweed [5, 13] | Plant response rating, Barnyardgrass [6, 14] | Plant response rating, Barnyardgrass [6, 11] | Plant response rating, Barnyardgrass [6, 13] | Plant response rating, Sandbur [7, 11] | Plant response rating, Sandbur [7, 13] | Plant response rating, Corn [8, 14] | other results |
| --- | --- | --- | --- | --- | --- | --- | --- | --- | --- | --- | --- | --- | --- | --- | --- | --- | --- | --- | --- | --- | --- |
| CC(=O)Oc1c(C)nn(C)c(=O)c1-c1c(C)cc(C)c2ccccc12 [Compound 99] | 30 | 0 | 50 | 70 | 30 | 70 | 75 | 60 | 100 | 95 | 80 | 60 | 75 | 50 | 40 | 50 | 30 | 40 | 30 | 0 | Plant response rating, Soybean [1, 12]: 0; Plant response rating, Panicum, Fall [2, 12]: 20; Plant response rating, Dayflower, VA [3, 12]: 40; Plant response rating, Beggarticks [4, 12]: 70; Plant response rating, Horseweed [5, 12]: 40; Plant response rating, Barnyardgrass [6, 12]: 40; Plant response rating, Sandbur [7, 12]: 20; Plant response rating, Corn [8, 11]: 0; Plant response rating, Corn [8, 12]: 0; Plant response rating, Corn [8, 13]: 0; Plant response rating, Pigweed, Palmer [9, 14]: 30; Plant response rating, Pigweed, Palmer [9, 11]: 50; Plant response rating, Pigweed, Palmer [9, 12]: 5; Plant response rating, Pigweed, Palmer [9, 13]: 10; Plant response rating, Ragweed [10, 14]: 80; Plant response rating, Ragweed [10, 11]: 90; Plant response rating, Ragweed [10, 12]: 50; Plant response rating, Ragweed [10, 13]: 75 |
| Cc1nn(C)c(=O)c(-c2cccc3ccc(Br)cc23)c1O [Compound 126] | 40 | 10 | 35 | 30 | 10 | 20 | 50 | 0 | 100 | 100 | 100 | 75 | 85 | 70 | 50 | 40 | 40 | 40 | 0 | 10 | Plant response rating, Soybean [1, 15]: 30; Plant response rating, Panicum, Fall [2, 15]: 35; Plant response rating, Dayflower, VA [3, 15]: 50; Plant response rating, Beggarticks [4, 15]: 100; Plant response rating, Horseweed [5, 15]: 80; Plant response rating, Barnyardgrass [6, 15]: 30; Plant response rating, Sandbur [7, 15]: 40; Plant response rating, Corn [8, 11]: 5; Plant response rating, Corn [8, 15]: 5; Plant response rating, Corn [8, 13]: 0; Plant response rating, Pigweed, Palmer [9, 14]: 50; Plant response rating, Pigweed, Palmer [9, 11]: 50; Plant response rating, Pigweed, Palmer [9, 15]: 80; Plant response rating, Pigweed, Palmer [9, 13]: 40; Plant response rating, Ragweed [10, 14]: 80; Plant response rating, Ragweed [10, 11]: 100; Plant response rating, Ragweed [10, 15]: 100; Plant response rating, Ragweed [10, 13]: 70 |
